Measurements published in the supplement of paper PMC11451515.

Tests used:
Conditions in all cases: 48 h
[1] = test system: SEM cells; assay: cell viability relative to DMSO control; higher = less cytotoxic
In short: (§1)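 NOMO1, SEM and P12-Ichikawa leukemia cells spent at least four passages adapting to each medium before use. They were seeded at 500 cells/well (NOMO1, SEM) or 1000 cells/well (P12-Ichikawa) in 5 μl in 1536-well plates and pin-dosed with library compounds in DMSO at 11 threefold steps from 47 μM down to 0.79 nM. After 48 h at 37°C, CellTiter-Glo One luminescence was read. Viability is reported as a percentage of the DMSO wells on each plate, with cell-free wells as background.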

[2] = test system: NOMO1; assay: AUC of viability dose-response curve (% viability x log10 dose units); higher = less sensitive
In short: (§2)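 Library compounds in DMSO were applied for 48 h at 37°C at 11 threefold doses (47 μM to 0.79 nM) to medium-adapted leukemia cells in 1536-well plates holding 500 or 1000 cells/well. Luminescence from CellTiter-Glo One was normalised plate by plate against DMSO and cell-free wells. Area under the curve came from trapezoidal integration of a log-logistic fit, after scaling curves that rose above full viability and discarding those that failed quality control. The fit had four parameters and used log10 doses.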

[3] = test system: P12-Ichikawa; assay: as above
In short: as §2

[4] = test system: SEM cells; assay: as above
In short: as §2

[5] = test system: NOMO1; assay: cell viability relative to DMSO control; higher = less cytotoxic
In short: as §1

[6] = test system: P12-Ichikawa; assay: as above
In short: as §1

N[C@@H](Cc1c[nH]c2ccc(O)cc12)C(=O)O
[1], HPLM + 10% dialyzed FBS
Conditions | cell viability [%]
0.000781 µM | 114
0.00234 µM | 110
0.00702 µM | 120
0.0211 µM | 120
0.0632 µM | 94.1
0.19 µM | 121
0.569 µM | 105
1.71 µM | 110
5.12 µM | 102
15.4 µM | 85
46.1 µM | 80.8

AUC of viability dose-response curve
Conditions | [2] | [3] | [4]
HPLM + 10% dialyzed FBS | 391 | 462 | 454
RPMI 5 mM glucose + 10% FBS | 411 | 444 | 401
RPMI 5 mM glucose + 10% dialyzed FBS | 392 | 458 | 398

Cn1cnc2c(F)c(Nc3ccc(Br)cc3Cl)c(C(=O)NOCCO)cc21
AUC of viability dose-response curve
Conditions | [2] | [3] | [4]
HPLM + 10% dialyzed FBS | 260 | 295 | 295
RPMI 5 mM glucose + 10% FBS | 289 | 295 | 278
RPMI 5 mM glucose + 10% dialyzed FBS | 258 | 299 | 273

COc1cccc(Nc2c(C(N)=O)cnc3c(C)cc([S+](=O)([O-])c4cccc(C(=O)N(C)C)c4)cc23)c1
cell viability [%], [1]
Conditions | HPLM + 10% dialyzed FBS | RPMI 5 mM glucose + 10% FBS | RPMI 5 mM glucose + 10% dialyzed FBS
0.000781 µM | 119 | 124 | 123
0.00234 µM | 113 | 123 | 130
0.00702 µM | 134 | 123 | 119
0.0211 µM | 130 | 136 | 129
0.0632 µM | 114 | 141 | 150
0.19 µM | 128 | 137 | 142
0.569 µM | 144 | 142 | 158
1.71 µM | 126 | 134 | 146
5.12 µM | 128 | 138 | 135
15.4 µM | 134 | 137 | 128
46.1 µM | 126 | 119 | 118

AUC of viability dose-response curve
Conditions | [2] | [3] | [4]
HPLM + 10% dialyzed FBS | 465 | 470 | 459
RPMI 5 mM glucose + 10% FBS | 472 | 472 | 466
RPMI 5 mM glucose + 10% dialyzed FBS | 469 | 469 | 468

Nc1nc(N)nc(-c2cc(Cl)ccc2Cl)n1.O=C(O)/C=C\C(=O)O
AUC of viability dose-response curve
Conditions | [2] | [3] | [4]
HPLM + 10% dialyzed FBS | 472 | 447 | 447
RPMI 5 mM glucose + 10% FBS | 453 | 460 | 432
RPMI 5 mM glucose + 10% dialyzed FBS | 461 | 457 | 459

CNC1CCCN(c2c(F)cc3c(=O)c(C(=O)O)cn(C4CC4)c3c2OC)C1 (stereo unspecified)
[1], HPLM + 10% dialyzed FBS
Conditions | cell viability [%]
0.000781 µM | 120
0.00234 µM | 123
0.00702 µM | 131
0.0211 µM | 139
0.0632 µM | 134
0.19 µM | 125
0.569 µM | 133
1.71 µM | 122
5.12 µM | 115
15.4 µM | 117
46.1 µM | 113

AUC of viability dose-response curve
Conditions | HPLM + 10% dialyzed FBS | RPMI 5 mM glucose + 10% FBS | RPMI 5 mM glucose + 10% dialyzed FBS
[3] | 432 | 441 | 443
[4] | 462 | 445 | 456

Cc1nnc(N[S+](=O)([O-])c2ccc(N)cc2)s1
AUC of viability dose-response curve
Conditions | HPLM + 10% dialyzed FBS | RPMI 5 mM glucose + 10% FBS | RPMI 5 mM glucose + 10% dialyzed FBS
[3] | 390 | 394 | 412
[4] | 450 | 443 | 449

C/C(=C\c1csc(C)n1)[C@@H]1C[C@@H]2O[C@@H]2CCC[C@H](C)[C@H](O)[C@@H](C)C(=O)C(C)(C)[C@@H](O)CC(=O)O1
cell viability [%]
Conditions | [1] | [5] | [6]
HPLM + 10% dialyzed FBS, 0.000781 µM | 26.5 | 33.3 | 37.2
HPLM + 10% dialyzed FBS, 0.00234 µM | 21.4 | 25.8 | 25.2
HPLM + 10% dialyzed FBS, 0.00702 µM | 22.1 | 27.8 | 25
HPLM + 10% dialyzed FBS, 0.0211 µM | 22.7 | 28.4 | 26.8
HPLM + 10% dialyzed FBS, 0.0632 µM | 19.9 | 29.2 | 27.1
HPLM + 10% dialyzed FBS, 0.19 µM | 20.3 | 31.6 | 24.6
HPLM + 10% dialyzed FBS, 0.569 µM | 23.7 | 30.1 | 23.9
HPLM + 10% dialyzed FBS, 1.71 µM | 21.5 | 30.5 | 25.2
HPLM + 10% dialyzed FBS, 5.12 µM | 19.1 | 34.8 | 21.1
HPLM + 10% dialyzed FBS, 15.4 µM | 20.8 | 34 | 21.5
HPLM + 10% dialyzed FBS, 46.1 µM | 20.7 | 30.7 | 22.6
RPMI 5 mM glucose + 10% FBS, 0.000781 µM | 14.8 | 27.2 | 28.8
RPMI 5 mM glucose + 10% FBS, 0.00234 µM | 18.4 | 19.5 | 14.8
RPMI 5 mM glucose + 10% FBS, 0.00702 µM | 16.2 | 17.9 | 19.1
RPMI 5 mM glucose + 10% FBS, 0.0211 µM | 16 | 20.3 | 20.3
RPMI 5 mM glucose + 10% FBS, 0.0632 µM | 16.4 | 18.1 | 20
RPMI 5 mM glucose + 10% FBS, 0.19 µM | 16.4 | 18 | 20.6
RPMI 5 mM glucose + 10% FBS, 0.569 µM | 16.2 | 17.8 | 21.6
RPMI 5 mM glucose + 10% FBS, 1.71 µM | 13.4 | 18.7 | 20.8
RPMI 5 mM glucose + 10% FBS, 5.12 µM | 16.1 | 18.1 | 17.4
RPMI 5 mM glucose + 10% FBS, 15.4 µM | 16.3 | 22.8 | 18.1
RPMI 5 mM glucose + 10% FBS, 46.1 µM | 13.4 | 19.8 | 19.3
RPMI 5 mM glucose + 10% dialyzed FBS, 0.000781 µM | 32.1 | 84.5 | 67.2
RPMI 5 mM glucose + 10% dialyzed FBS, 0.00234 µM | 17.1 | 20.9 | 27.9
RPMI 5 mM glucose + 10% dialyzed FBS, 0.00702 µM | 19.3 | 20 | 33.6
RPMI 5 mM glucose + 10% dialyzed FBS, 0.0211 µM | 16.8 | 21.6 | 27.2
RPMI 5 mM glucose + 10% dialyzed FBS, 0.0632 µM | 15.6 | 23.3 | 34.7
RPMI 5 mM glucose + 10% dialyzed FBS, 0.19 µM | 17.7 | 20.9 | 33.1
RPMI 5 mM glucose + 10% dialyzed FBS, 0.569 µM | 19.6 | 21.7 | 33.7
RPMI 5 mM glucose + 10% dialyzed FBS, 1.71 µM | 15.2 | 25.8 | 31.4
RPMI 5 mM glucose + 10% dialyzed FBS, 5.12 µM | 18.7 | 24.2 | 29.1
RPMI 5 mM glucose + 10% dialyzed FBS, 15.4 µM | 21.8 | 31.1 | 31.3
RPMI 5 mM glucose + 10% dialyzed FBS, 46.1 µM | 19.2 | 23.3 | 35.9

[2]
Conditions | AUC of viability dose-response curve
HPLM + 10% dialyzed FBS | 146
RPMI 5 mM glucose + 10% FBS | 93
RPMI 5 mM glucose + 10% dialyzed FBS | 138

Nc1nc2ccc(OC(F)(F)F)cc2s1
cell viability [%], [1]
Conditions | HPLM + 10% dialyzed FBS | RPMI 5 mM glucose + 10% dialyzed FBS
0.000781 µM | 137 | 127
0.00234 µM | 119 | 123
0.00702 µM | 120 | 125
0.0211 µM | 133 | 131
0.0632 µM | 134 | 119
0.19 µM | 127 | 129
0.569 µM | 131 | 147
1.71 µM | 131 | 123
5.12 µM | 130 | 130
15.4 µM | 114 | 118
46.1 µM | 78.3 | 64

AUC of viability dose-response curve
Conditions | [2] | [3] | [4]
HPLM + 10% dialyzed FBS | 453 | 462 | 462
RPMI 5 mM glucose + 10% FBS | 455 | 461 | 461
RPMI 5 mM glucose + 10% dialyzed FBS | 455 | 466 | 461
